# Values of other authors, collected in patent US8440702B2, “1,3-oxazolidin -2-one derivatives useful as CETP inhibitors” (Merck Sharp & Dohme Corp., priority 2005, dated 2013).
# Conditions: clinical trials terminated
compound,measurement,value
CCOC(=O)N1c2ccc(C(F)(F)F)cc2[C@@H](N(Cc2cc(C(F)(F)F)cc(C(F)(F)F)c2)C(=O)OC)C[C@H]1CC [torcetrapib],mortality in patients using the drug during outcomes studies,increased mortality
